The values that follow come from patent publication US9809574B2, “Isoindoline or isoquinoline compounds, a process for their preparation and pharmaceutical compositions containing them” (LES LABORATOIRES SERVIER, priority 2013, dated 2017).

Structures can show the parent of a compound that is named as a salt. A value given as a limit tells only on which side of the number the result lay.

One may read the IC50 as the point on the concentration scale where inhibition reaches its midpoint.

The subject of assay [1] is RS4; 11 leukaemia cell line. The experiment in a line: In vitro cytotoxicity, Microculture Tetrazolium Assay (MTT). Type of assay: cell-based. The following applies: Homo sapiens, 11 cells exposed for 48 hours. As for the experimental part: The cytotoxicity studies were carried out on the RS4; 11 leukaemia cell line and on H146 small Cell Lung Carcinoma cell line. The cells are distributed onto microplates and exposed to the test compounds for 48 hours. The cell viability is then quantified by a colorimetric assay, the Microculture Tetrazolium Assay (Cancer Res., 1987, 47, 939-942).

For another assay, the target named is Bcl-2 protein (histag-Bcl-2, UniProtKB P10415) (Homo sapiens (Human), UniProt P10415). Briefly: Inhibition of Bcl-2 by the fluorescence polarisation technique. It is filed as binding. The following applies: fluorescence polarisation test; incubation for 2 hours; read-out: IC50 (nM) Bcl-2 FP. An excerpt:
For partial inhibitors, the percentage fluorescence polarisation inhibition for a given concentration of the test compound is indicated.
(Polarisation of emitted light reports the rotation of a fluorescent probe.)

Chain of Bcl-2 protein (P10415 whole entry): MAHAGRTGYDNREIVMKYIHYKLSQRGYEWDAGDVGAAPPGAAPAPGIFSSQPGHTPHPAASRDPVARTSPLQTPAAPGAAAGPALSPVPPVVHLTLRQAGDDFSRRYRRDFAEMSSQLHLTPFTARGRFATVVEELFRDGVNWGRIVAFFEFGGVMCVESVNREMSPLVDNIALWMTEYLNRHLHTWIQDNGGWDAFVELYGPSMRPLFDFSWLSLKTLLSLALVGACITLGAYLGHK

For `C[C@@H]1Cc2ccccc2CN1C(=O)c1cc2c(cc1-c1cc(C(=O)N(C)c3ccc(O)cc3)c3n1CCCC3)CCN(C(=O)OCc1ccccc1)C2` [Example 93, Benzyl 6-{1-[(4-hydroxyphenyl)(methyl)carbamoyl]-5,6,7,8-tetrahydroindolizin-3-yl}-7-[(3R)-3-methyl-1,2,3,4-tetrahydroisoquinoline-2-carbonyl]-1,2,3,4-tetrahydroisoquinoline-2-carboxylate], the figures for the IC50 (in assay [1]; on Bcl-2 protein) were 11 nM and 5.1 nM, respectively.

As to `CCCCN(CCCC)C(=O)c1cc(-c2cc3c(cc2C(=O)N2Cc4ccccc4C[C@H]2CN2CCOCC2)CN(C(=O)Oc2ccccc2)CC3)n(C)c1C` [Example 197, Phenyl 6-[4-(dibutylcarbamoyl)-1,5-dimethyl-1H-pyrrol-2-yl]-7-[(3S)-3-(morpholin-4-ylmethyl)-1,2,3,4-tetrahydroisoquinoline-2-carbonyl]-1,2,3,4-tetrahydroisoquinoline-2-carboxylate], the IC50 in assay [1] was > 150 nM; at Bcl-2 protein it was 26 nM.

In the case of `CCCCN(C(=O)c1cc(-c2cc3c(cc2C(=O)N2Cc4ccccc4C[C@H]2CN2CCOCC2)CN(C(=O)Cc2ccccc2)CC3)n(C)c1C)c1ccc(O)cc1` [Example 232, N-Butyl-N-(4-hydroxyphenyl)-1,2-dimethyl-5-{7-[(3S)-3-(morpholin-4-ylmethyl)-1,2,3,4-tetrahydroisoquinoline-2-carbonyl]-2-(2-phenylacetyl)-1,2,3,4-tetrahydroisoquinolin-6-yl}-1H-pyrrole-3-carboxamide], the values for the half-inhibitory concentration (IC50) (in assay [1]; on Bcl-2 protein) were 11 nM and 2.9 nM, respectively.

In the case of `CN(C(=O)c1cc(-c2cc3c(cc2C(=O)N2Cc4ccccc4C[C@H]2CN2CCOCC2)CN(C(=O)Oc2ccccc2)CC3)n2c1CCCC2)c1ccc(O)cc1` [Example 69, Phenyl 6-{1-[(4-hydroxyphenyl)(methyl)carbamoyl]-5,6,7,8-tetrahydroindolizin-3-yl}-7-[(3S)-3-(morpholin-4-ylmethyl)-1,2,3,4-tetrahydroisoquinoline-2-carbonyl]-1,2,3,4-tetrahydroisoquinoline-2-carboxylate hydrochloride], the 50% inhibitory concentration (IC50) in assay [1] turned out to be 3.46 nM; at Bcl-2 protein, 3.1 nM.

As to `Cc1c(C(=O)N(C)c2ccccc2)cc(-c2cc3c(cc2C(=O)N2Cc4ccccc4C[C@H]2C)CN(C(=O)Cc2ccc(NCCN(C)C)cc2)CC3)n1C` [Example 149, 5-{2-[2-(4-{[2-(Dimethylamino)ethyl]amino}phenyl)acetyl]-7-[(3R)-3-methyl-1,2,3,4-tetrahydroisoquinoline-2-carbonyl]-1,2,3,4-tetrahydroisoquinolin-6-yl}-N,1,2-trimethyl-N-phenyl-1H-pyrrole-3-carboxamide], the figures for the IC50 (in assay [1]; on Bcl-2 protein) were 124 nM and 11 nM, respectively.

Consider `Cc1c(C(=O)N(C)c2ccc(O)cc2)cc(-c2cc3c(cc2C(=O)N2Cc4ccccc4C[C@H]2CN2CCOCC2)CN(C(=O)/C=C/c2ccccc2)CC3)n1C` [Example 131, N-(4-Hydroxyphenyl)-N,1,2-trimethyl-5-{7-[(3S)-3-(morpholin-4-ylmethyl)-1,2,3,4-tetrahydroisoquinoline-2-carbonyl]-2-[(2E)-3-phenylprop-2-enoyl]-1,2,3,4-tetrahydroisoquinolin-6-yl}-1H-pyrrole-3-carboxamide], for which the values for the IC50 (in assay [1]; on Bcl-2 protein) were 11 nM and 4 nM, respectively.

On to `CCCCN(C(=O)c1cc(-c2cc3c(cc2C(=O)N2Cc4ccccc4C[C@H]2CN2CCOCC2)CN(C(=O)Oc2ccccc2)CC3)n(C)c1C)c1ccc(O)cc1` [Example 187, Phenyl 6-{4-[butyl(4-hydroxyphenyl)carbamoyl]-1,5-dimethyl-1H-pyrrol-2-yl}-7-[(3S)-3-(morpholin-4-ylmethyl)-1,2,3,4-tetrahydroisoquinoline-2-carbonyl]-1,2,3,4-tetrahydroisoquinoline-2-carboxylate], for which the results for the IC50 (in assay [1]; on Bcl-2 protein) were 4.6 nM and 3 nM, respectively.

Regarding `Cc1c(C(=O)N(C)c2ccc(O)cc2)cc(-c2cc3c(cc2C(=O)N2Cc4ccccc4C[C@H]2CCCN2CCOCC2)CN(C(=O)OC2CCCCC2)CC3)n1C` [Example 809, Cyclohexyl 6-{4-[(4-hydroxyphenyl)(methyl)carbamoyl]-1,5-dimethyl-1H-pyrrol-2-yl}-7-[(3R)-3-[3-(morpholin-4-yl)propyl]-1,2,3,4-tetrahydroisoquinoline-2-carbonyl]-1,2,3,4-tetrahydroisoquinoline-2-carboxylate], the IC50 in assay [1] came out at 9.8 nM; at Bcl-2 protein, 3.1 nM.

With `C[C@@H]1Cc2ccccc2CN1C(=O)c1cc2c(cc1-c1cc(C(=O)N(C)c3ccc(O)cc3)c3n1CCCC3)CCN(C(=O)Oc1ccccc1)C2` [Example 46, Phenyl 6-{1-[(4-hydroxyphenyl)(methyl)carbamoyl]-5,6,7,8-tetrahydroindolizin-3-yl}-7-[(3R)-3-methyl-1,2,3,4-tetrahydroisoquinoline-2-carbonyl]-1,2,3,4-tetrahydroisoquinoline-2-carboxylate], the IC50 came to 2.8 nM in assay [1] and 3.7 nM at Bcl-2 protein.

Turning to `CC(Cc1ccccc1)C(=O)N1Cc2cc(C(=O)N3Cc4ccccc4C[C@H]3C)c(-c3cc(C(=O)N(C)c4ccc(O)cc4)c4n3CCCC4)cc2C1` (stereo partly drawn) [Example 23, 3-[2-(2-Benzylpropanoyl)-6-[(3R)-3-methyl-1,2,3,4-tetrahydroisoquinoline-2-carbonyl]-2,3-dihydro-1H-isoindol-5-yl]-N-(4-hydroxyphenyl)-N-methyl-5,6,7,8-tetrahydroindolizine-1-carboxamide], the values for the half-maximal inhibitory concentration (IC50) (in assay [1]; at Bcl-2 protein) were 61 nM and 13 nM, respectively.

With `C[C@@H]1Cc2ccccc2CN1C(=O)c1cc2c(cc1-c1cc(C(=O)N(C)c3ccc(O)cc3)c3n1CCCC3)CCN(C(=O)Cc1cccc(NCCN(C)C)c1)C2` [Example 123, 3-{2-[2-(3-{[2-(Dimethylamino)ethyl]amino}phenyl)acetyl]-7-[(3R)-3-methyl-1,2,3,4-tetrahydroisoquinoline-2-carbonyl]-1,2,3,4-tetrahydroisoquinolin-6-yl}-N-(4-hydroxyphenyl)-N-methyl-5,6,7,8-tetrahydroindolizine-1-carboxamide], the IC50 in assay [1] was determined as 8.3 nM; on Bcl-2 protein, 5.3 nM.

In the case of `CN(C(=O)c1cc(-c2cc3c(cc2C(=O)N2Cc4ccccc4C[C@H]2CN2CCOCC2)CN(C(=O)c2ccccc2)C3)n2c1CCCC2)c1ccc(O)cc1` [Example 12, 3-{2-Benzoyl-6-[(3S)-3-(morpholin-4-ylmethyl)-1,2,3,4-tetrahydroisoquinoline-2-carbonyl]-2,3-dihydro-1H-isoindol-5-yl}-N-(4-hydroxyphenyl)-N-methyl-5,6,7,8-tetrahydroindolizine-1-carboxamide hydrochloride], the IC50 in assay [1] worked out at 759 nM; on Bcl-2 protein it was 43 nM.

On to `C[C@@H]1Cc2ccccc2CN1C(=O)c1cc2c(cc1-c1cc(C(=O)N(C)c3ccc(O)cc3)c3n1CCCC3)CN(C(=O)Nc1ccccc1)C2` [Example 60, 5-{1-[(4-Hydroxyphenyl)(methyl)carbamoyl]-5,6,7,8-tetrahydroindolizin-3-yl}-6-[(3R)-3-methyl-1,2,3,4-tetrahydroisoquinoline-2-carbonyl]-N-phenyl-2,3-dihydro-1H-isoindole-2-carboxamide], for which the 50% inhibitory concentration (IC50) in assay [1] amounted to 46 nM; at Bcl-2 protein it was 5.9 nM.

`C[C@@H]1Cc2ccccc2CN1C(=O)c1cc2c(cc1-c1cc(C(=O)N(C)c3ccc(O)cc3)c3n1CCCC3)CCN(C(=O)Cc1cccc(N3CCN(C)CC3)c1)C2` [Example 169, N-(4-Hydroxyphenyl)-N-methyl-3-{7-[(3R)-3-methyl-1,2,3,4-tetrahydroisoquinoline-2-carbonyl]-2-{2-[3-(4-methylpiperazin-1-yl)phenyl]acetyl}-1,2,3,4-tetrahydroisoquinolin-6-yl}-5,6,7,8-tetrahydroindolizine-1-carboxamide]: the values for the half-maximal inhibitory concentration (IC50) (in assay [1]; at Bcl-2 protein) were 3 nM and 3.3 nM, respectively.

As to `CNC(=O)N1Cc2cc(C(=O)N3Cc4ccccc4C[C@H]3C)c(-c3cc(C(=O)N(C)c4ccc(O)cc4)c4n3CCCC4)cc2C1` [Example 55, 5-{1-[(4-Hydroxyphenyl)(methyl)carbamoyl]-5,6,7,8-tetrahydroindolizin-3-yl}-N-methyl-6-[(3R)-3-methyl-1,2,3,4-tetrahydroisoquinoline-2-carbonyl]-2,3-dihydro-1H-isoindole-2-carboxamide], the IC50 in assay [1] came out at 372 nM; at Bcl-2 protein it was 16 nM.

For `Cc1c(C(=O)N(C)c2ccccc2)cc(-c2cc3c(cc2C(=O)N2Cc4ccccc4C[C@H]2CN2CCOCC2)CN(C(=O)Oc2cnc4c(ccn4C)c2)CC3)n1C` [Example 634, 1-Methyl-1H-pyrrolo[2,3-b]pyridin-5-yl 6-{1,5-dimethyl-4-[methyl(phenyl)carbamoyl]-1H-pyrrol-2-yl}-7-[(3S)-3-(morpholin-4-ylmethyl)-1,2,3,4-tetrahydroisoquinoline-2-carbonyl]-1,2,3,4-tetrahydroisoquinoline-2-carboxylate], the IC50 in assay [1] was 21 nM; at Bcl-2 protein, 6.9 nM.

Turning to `CN(C(=O)c1cc(-c2cc3c(cc2C(=O)N2Cc4ccccc4C[C@H]2CN2CCOCC2)CN(S(=O)(=O)c2ccc4ccccc4c2)CC3)n2c1CCCC2)c1ccc(O)cc1` [Example 5, N-(4-Hydroxyphenyl)-N-methyl-3-{7-[(3S)-3-(morpholin-4-ylmethyl)-1,2,3,4-tetrahydroisoquinoline-2-carbonyl]-2-(naphthalene-2-sulfonyl)-1,2,3,4-tetrahydroisoquinolin-6-yl}-5,6,7,8-tetrahydroindolizine-1-carboxamide], the IC50 in assay [1] was 70 nM; at Bcl-2 protein, 43 nM.
